Data as given in the supplement of paper PMC11451515.

Tests used:
Conditions in all cases: 48 h
[1] = test system: NOMO1; experiment: cell viability relative to DMSO control; higher = less cytotoxic
In short: (§1)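 Three leukemia lines were tested: NOMO1 and SEM at 500 cells/well and P12-Ichikawa at 1000 cells/well. Each was adapted for at least four passages in each medium and seeded in 5 μl in 1536-well plates, and library compounds in DMSO were pin-dosed from 47 μM to 0.79 nM in 11 threefold steps. After 48 h at 37°C, CellTiter-Glo One luminescence was read. Viability is a percentage relative to DMSO wells on each plate, with cell-free wells as background.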

[2] = test system: P12-Ichikawa; experiment: as above
In short: as §1

[3] = test system: SEM cells; experiment: as above
In short: as §1

[4] = test system: NOMO1; experiment: AUC of viability dose-response curve (% viability x log10 dose units); higher = less sensitive
In short: (§2)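 Viability of medium-adapted leukemia cells was measured by CellTiter-Glo One luminescence after 48 h at 37°C with library compounds in DMSO. Doses were 11 threefold steps from 47 μM to 0.79 nM, in 1536-well plates at 500 or 1000 cells/well. Signals were normalised per plate to DMSO and cell-free wells and fitted with a four-parameter log-logistic model on log10 dose. Area under the curve was integrated by trapezoidal rule, with curves exceeding full viability scaled and failed quality-control curves removed.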

[5] = test system: P12-Ichikawa; experiment: as above
In short: as §2

[6] = test system: SEM cells; experiment: as above
In short: as §2

CC(=O)Nc1ccc(OC[C@](C)(O)C(=O)Nc2ccc([N+](=O)[O-])c(C(F)(F)F)c2)cc1
cell viability [%]
Conditions	[1]	[2]	[3]
HPLM + 10% dialyzed FBS, 0.000781 µM	66.3	74.6	67.5
HPLM + 10% dialyzed FBS, 0.00234 µM	68.2	87	59.4
HPLM + 10% dialyzed FBS, 0.00702 µM	72.9	84.5	69
HPLM + 10% dialyzed FBS, 0.0211 µM	70.6	87.8	75.9
HPLM + 10% dialyzed FBS, 0.0632 µM	87.7	85.5	68.9
HPLM + 10% dialyzed FBS, 0.19 µM	80.2	89.1	72.8
HPLM + 10% dialyzed FBS, 0.569 µM	88.4	88.4	77.1
HPLM + 10% dialyzed FBS, 1.71 µM	83.5	88.6	84
HPLM + 10% dialyzed FBS, 5.12 µM	83.4	90.8	83.4
HPLM + 10% dialyzed FBS, 15.4 µM	77.8	91.6	82.3
HPLM + 10% dialyzed FBS, 46.1 µM	82.4	86.5	54.8
RPMI 5 mM glucose + 10% FBS, 0.000781 µM	70.5	63.5	81.6
RPMI 5 mM glucose + 10% FBS, 0.00234 µM	76.9	76.8	78.3
RPMI 5 mM glucose + 10% FBS, 0.00702 µM	75.4	71.1	77.8
RPMI 5 mM glucose + 10% FBS, 0.0211 µM	82.8	87	103
RPMI 5 mM glucose + 10% FBS, 0.0632 µM	87	85.5	80.8
RPMI 5 mM glucose + 10% FBS, 0.19 µM	83	77	80.2
RPMI 5 mM glucose + 10% FBS, 0.569 µM	82.8	80.6	88.8
RPMI 5 mM glucose + 10% FBS, 1.71 µM	88.2	83.8	90.4
RPMI 5 mM glucose + 10% FBS, 5.12 µM	76.2	85.1	81.8
RPMI 5 mM glucose + 10% FBS, 15.4 µM	86.9	86.3	93.7
RPMI 5 mM glucose + 10% FBS, 46.1 µM	82.2	81.2	44.7
RPMI 5 mM glucose + 10% dialyzed FBS, 0.000781 µM	72	67.3	79.9
RPMI 5 mM glucose + 10% dialyzed FBS, 0.00234 µM	78.1	76.4	79
RPMI 5 mM glucose + 10% dialyzed FBS, 0.00702 µM	87.3	77.3	84.8
RPMI 5 mM glucose + 10% dialyzed FBS, 0.0211 µM	83.1	78.2	108
RPMI 5 mM glucose + 10% dialyzed FBS, 0.0632 µM	92.7	92.5	86.7
RPMI 5 mM glucose + 10% dialyzed FBS, 0.19 µM	86.1	76.4	97.5
RPMI 5 mM glucose + 10% dialyzed FBS, 0.569 µM	85.1	80	88.7
RPMI 5 mM glucose + 10% dialyzed FBS, 1.71 µM	85.6	83.4	93.8
RPMI 5 mM glucose + 10% dialyzed FBS, 5.12 µM	85.2	80.3	71
RPMI 5 mM glucose + 10% dialyzed FBS, 15.4 µM	92.5	85.8	91.7
RPMI 5 mM glucose + 10% dialyzed FBS, 46.1 µM	78	80.7	48

AUC of viability dose-response curve
Conditions	[4]	[5]	[6]
HPLM + 10% dialyzed FBS	375	416	346
RPMI 5 mM glucose + 10% FBS	388	384	399
RPMI 5 mM glucose + 10% dialyzed FBS	404	383	411

N=C(CCSCc1csc(N=C(N)N)n1)N[S+](N)(=O)[O-]
cell viability [%]
Conditions	[1]	[2]	[3]
HPLM + 10% dialyzed FBS, 0.000781 µM	87	95.2	85.8
HPLM + 10% dialyzed FBS, 0.00234 µM	95.6	102	82.3
HPLM + 10% dialyzed FBS, 0.00702 µM	110	103	96.9
HPLM + 10% dialyzed FBS, 0.0211 µM	101	95.7	82.6
HPLM + 10% dialyzed FBS, 0.0632 µM	99.1	108	94.5
HPLM + 10% dialyzed FBS, 0.19 µM	83.2	98.2	99
HPLM + 10% dialyzed FBS, 0.569 µM	101	106	109
HPLM + 10% dialyzed FBS, 1.71 µM	115	103	98.5
HPLM + 10% dialyzed FBS, 5.12 µM	101	106	106
HPLM + 10% dialyzed FBS, 15.4 µM	91.8	108	96.1
HPLM + 10% dialyzed FBS, 46.1 µM	107	102	92.6
RPMI 5 mM glucose + 10% FBS, 0.000781 µM	80.2	93.1	89.9
RPMI 5 mM glucose + 10% FBS, 0.00234 µM	94.7	97.4	87.6
RPMI 5 mM glucose + 10% FBS, 0.00702 µM	94.8	97.3	103
RPMI 5 mM glucose + 10% FBS, 0.0211 µM	92	94	88
RPMI 5 mM glucose + 10% FBS, 0.0632 µM	92.2	96.2	91.8
RPMI 5 mM glucose + 10% FBS, 0.19 µM	97.5	93.2	102
RPMI 5 mM glucose + 10% FBS, 0.569 µM	93.8	97.6	99.4
RPMI 5 mM glucose + 10% FBS, 1.71 µM	88.1	95.3	96.5
RPMI 5 mM glucose + 10% FBS, 5.12 µM	99.1	95.3	100
RPMI 5 mM glucose + 10% FBS, 15.4 µM	86.8	87.3	105
RPMI 5 mM glucose + 10% FBS, 46.1 µM	88.3	99.1	92.2
RPMI 5 mM glucose + 10% dialyzed FBS, 0.000781 µM	84.7	80.3	80.5
RPMI 5 mM glucose + 10% dialyzed FBS, 0.00234 µM	96	89.1	80.4
RPMI 5 mM glucose + 10% dialyzed FBS, 0.00702 µM	89.9	98.3	107
RPMI 5 mM glucose + 10% dialyzed FBS, 0.0211 µM	92.1	91	82.2
RPMI 5 mM glucose + 10% dialyzed FBS, 0.0632 µM	100	95.1	89
RPMI 5 mM glucose + 10% dialyzed FBS, 0.19 µM	106	94.9	93.6
RPMI 5 mM glucose + 10% dialyzed FBS, 0.569 µM	95.7	95	96.1
RPMI 5 mM glucose + 10% dialyzed FBS, 1.71 µM	93.7	88.7	103
RPMI 5 mM glucose + 10% dialyzed FBS, 5.12 µM	100	93.5	107
RPMI 5 mM glucose + 10% dialyzed FBS, 15.4 µM	97	87.1	92.6
RPMI 5 mM glucose + 10% dialyzed FBS, 46.1 µM	103	83.2	116

AUC of viability dose-response curve
Conditions	[4]	[5]	[6]
HPLM + 10% dialyzed FBS	459	467	452
RPMI 5 mM glucose + 10% FBS	439	454	458
RPMI 5 mM glucose + 10% dialyzed FBS	461	432	421
